In patent US20250170143A1, “METHODS OF TREATING OCULAR FIBROTIC PATHOLOGIES” (Mayo Foundation for Medical Education and Research, priority 2022, published 2025):
Read-outs that look alike come from different tables or passages of the source.

What was measured:
ARPE-19 cells [1] = test: Fibronectin deposition assay in TGFβ-stimulated ARPE-19 cells; assay type: cell-based, human; settings: for IC50: ARPE-19 cells stimulated with TGFβ, incubated 96 hours
Procedure: ARPE-19 cells were plated into 96-well plates (10,000 cells/well) and allowed to attach. Media was removed and replaced with the media specified in the “Cell Culture” section above, without FBS. Cells were treated for four days±TGFβ (10 ng/mL) and 10 μM loxapine. Cells were fixed with 10% neutral buffered formalin (Sigma-Aldrich) for 15 minutes. Cells were permeabilized with 0.25% Triton X-100 (Sigma-Aldrich) and blocked with 1% BSA for 1 hour. Cells were incubated with mouse monoclonal IgG3 primary antibodies against fibronectin (Santa Cruz Biotechnology), which were diluted 1:400 in 0.25% Triton X-100 (Sigma-Aldrich) with 1% BSA. Cells were incubated with primary antibodies either in 4° C. overnight or at room temperature for 2 hours. Cells were washed with PBS (Gibco), then incubated for 1 hour with Alexa Fluor® 488 donkey anti-mouse IgG (H+L) secondary antibodies (Life Technologies) and DAPI (Thermo Fisher Scientific), which were each diluted 1:1000 in 0.25% Triton X-100 (Sigma-Aldrich) with 1% BSA. Cells were washed again with PBS (Gibco). Immunofluorescence was measured using a Cytation 5 imaging reader (BioTek).
The compounds of this Example were tested using the fibronectin deposition assay described in Example 1. In brief, ARPE-19 cells were stimulated with TGFβ+/−the indicated concentration of each compound. Incubated 96 hours Fixed and immunostained for fibronectin.
In brief, ARPE-19 cells were stimulated with TGFβ+/−the indicated concentration of each compound. Incubated 96 hours, fixed and immunostained for fibronectin.

[2] = system: profibrotic gene expression (COL1A1, ACTA2, FN1) in ARPE-19 cells; test: Profibrotic gene expression by qPCR in ARPE-19 cells treated ±TGFβ; assay type: cell-based, human; settings: ARPE-19 + TGFβ (10 ng/mL), 24 hours; antagonists 10 μM, pramipexole 1 μM; compared to TGFβ only
Procedure: ARPE-19 cells were plated into 12 well plates (100,000 cells/well) and allowed to attach. Media was removed and replaced with the media specified in the “Cell Culture” section above, minus FBS. Cells were treated for 24 hours±TGFβ (10 ng/mL), 1 μM pramipexole, and 10 μM loxapine. RNA was isolated using the RNeasy Plus Mini Kit (Qiagen) and the manufacturer's protocol. Isolated RNA was converted to cDNA using the SuperScript VILO cDNA Synthesis Kit (Invitrogen) and the PTC-200 Peltier Thermal Cycler (MJ Research). Quantitative PCR (qPCR) was performed using FastStart Essential DNA Green Master (Roche) and LightCycler 96 (Roche).
After identifying the preferential expression of DRD2 in ARPE-19 cells, the regulatory effects of these receptors on fibrotic activation were elucidated. As to D2 dopamine receptor (FIG. 2A-B), RNA isolation and qPCR were used to measure the transcript levels of fibrotic markers in ARPE-19 cells treated±TGFβ, pramipexole (D2 agonist), and loxapine (D2 antagonist). […] In experiments combining pramipexole and loxapine along with TGFβ negates the activity of the molecules alone, confirming their activity is being driven by their interaction with the D2 receptor (FIG. 2B).
The effect of solnitropine, solupine, and loxapine on the expression of profibrotic genes COL1A1 and FN1 were evaluated as described in Example 1 (FIGS. 7A and 7B). In brief, ARPE-19 cells were treated±TGFβ in the presence of either loxapine, solnitropine, or solupine. Gene expression was measured by qPCR on RNA isolated from the treated cells 24 h after treatment.

ARPE-19 cells [3] = test: Fibronectin deposition in ARPE-19 cells stimulated with a cocktail of profibrotic ligands; assay type: cell-based, human; settings: TGF-β1, TGF-β2, TNF-α, FGF-β, PDGF-CC all at 10 ng/mL, 10 μM solupine
Procedure: ARPE-19 cells were cultured as described in FIGS. 4-6 and fibronectin was measured after stimulating the cells with a combination of profibrotic soluble factors including: T1=TGF-β1, T2=TGF-β2, Tα=TNF-α, Fβ=FGF-β, PC=PDGF-CC, (all at 10 ng/mL). +/−10 μM solupine. N=3. Results: solupine maintains its efficacy at blocking RPE cell fibronectin deposition when profibrotic factors are combined in a cocktail.

ARPE-19 cells [4] = test: PDGF-CC stimulated proliferation; assay type: cell-based, human; settings: ARPE-19, 10 ng/mL PDGF-CC; compared with methotrexate
Procedure: Effect of methotrexate, solupine, sertindole, penfluridol, pimozide, and fluspirilene, on FGF-β stimulated proliferation was determined. Methods: ARPE-19 cells were seeded into 96-well plates (1,000 cells/well) and incubated for 6 h at 37° C. After, media was removed and exchanged for media containing 0% fetal bovine serum+/−10 ng/mL FGF-β, and the indicated concentration of compound. Compound concentrations were selected based on the potencies observed in FIGS. 4A-6B, and 9A-9C. After the indicated number of hours, cells were fixed in 4% formalin, and DAPI stained. Cells were then imaged using an automated microscope (Biotek Cytation5) and the number of DAPI nuclei were quantified using onboard software (Gen5). Raw cells/field of view are plotted. N=3. […] FGF-β levels are elevated in patients with PVR.
Effect of methotrexate and solupine on PDGF-CC stimulated proliferation was determined. Methods: experiments were carried out as described in Example 6, except 10 ng/mL PDGF-CC was used to stimulate proliferation. […] PDGF-CC levels are elevated in patients with PVR.

ARPE-19 cells [5] = test: Solupine functional stability (stored saline stock vs fresh, FGF-β proliferation readout); assay type: cell-based, human; settings: dissolved in saline, opaque sealed container, 4° C.; potency compared with fresh stock in FGF-β proliferation
Procedure: A powder stock of solupine was dissolved in saline and stored in an opaque, sealed container at 4° C. for 90 days. The potency and efficacy of this stored stock was then compared to freshly solubilized stock of solupine dissolved in saline. ARPE-19 cells were cultured for 4 days with FGF-β and the indicated concentration of fresh or 90-day-old solupine stock. Cells were then assayed for proliferation as described herein for FIGS. 10 and 11. N=3. Results: solupine stock is functionally stable for at least 90 days under these conditions.

mouse eye = test: Toxicology scoring of mouse eye injected with solupine; assay type: in vivo; settings: mice, 14 days
Procedure: Mice were injected with 1 μL of PBS (FIG. 17A), 1 μL PBS containing 10 μg/0.05 mL solupine (FIG. 17B), or 1 μL PBS containing 30 μg/0.05 mL solupine (FIG. 17C). The eyes were then analyzed by a pathologist and scored for the indicated observations of ocular toxicities. over the course of 14 days. Work was performed under contract with Labcorp. N=3-6 mice/group.

[6] = system: Human conjunctival fibroblasts; test: Fibronectin deposition by conjunctival fibroblasts; assay type: cell-based; settings: conditions of FIGS. 4-6, indicated concentrations of solupine
Procedure: Human conjunctival fibroblasts were cultured under the same conditions described in FIGS. 4-6 and fibronectin deposition was measured after treating with the indicated concentrations of solupine. N=3.

[7] = fibronectin deposition, read-out: IC50
[8] = Homo sapiens, fibronectin deposition, read-out: IC50
[9] = Homo sapiens, read-out: IC50 values (fibronectin deposition)

Compound `CN1CCN(C2=Nc3cc(O)ccc3Oc3ccc(Cl)cc32)CC1` [8-OH-loxapine] has an IC50 (ARPE-19 cells [1]; [7]) of over 10 µM.

In the case of `Clc1ccc2c(c1)N=C(N1CCNCC1)c1ccccc1N2` [N-desmethyl clozapine], the IC50 (ARPE-19 cells [1]; [7]) is reported as at most 5 µM.

With `Cc1cc2c(s1)Nc1ccccc1N=C2N1CCNCC1` [N-desmethyl olanzapine] the IC50 (ARPE-19 cells [1]; [7]) was at most 5 µM.

With `CCN1CCCC1CNC(=O)c1cc(S(=O)(=O)CC)c(N)cc1OC` (stereo not shown) [amisulpride] the IC50 (ARPE-19 cells [1]; [8]) was over 10 µM.

`O=C1CCc2ccc(OCCCCN3CCN(c4cccc(Cl)c4Cl)CC3)cc2N1` [aripiprazole] was tested, and the fibronectin deposition (ARPE-19 cells [1]; ARPE-19, TGFβ, performed identically to FIGS. 4-6, N=3) was “blocks fibronectin deposition”.

`O=C(CCCN1CCC(n2c(O)nc3ccccc32)CC1)c1ccc(F)cc1` [benperidol] was tested, and the IC50 (ARPE-19 cells [1]; [8]) was at most 5 µM.

With `CCN1CCN(c2cc(-c3ccc(F)cc3)c3c(n2)CCCCCC3)CC1` [blonanserin] the IC50 (ARPE-19 cells [1]; [8]) was 5 to 10 µM.

For `O=C(CCCN1CC=C(n2c(=O)[nH]c3ccccc32)CC1)c1ccc(F)cc1` [droperidol], the IC50 (ARPE-19 cells [1]; [8]) was 5 to 10 µM.

With `CCc1cc(Cl)c(OC)c(C(=O)NC[C@@H]2CCCN2CC)c1O` [eticlopride] the IC50 (ARPE-19 cells [1]; [8]) was over 10 µM.

`O=C1NCN(c2ccccc2)C12CCN(CCCC(c1ccc(F)cc1)c1ccc(F)cc1)CC2` [fluspirilene] showed an IC50 (ARPE-19 cells [1]; [8]) of at most 5 µM.

For `CN1CCN(C2=Nc3ccccc3Oc3ccc(Cl)cc32)CC1` [loxapine], the IC50 (ARPE-19 cells [1]; [8]) was at most 5 µM.

`O=C1[C@@H]2[C@H]3CC[C@H](C3)[C@@H]2C(=O)N1C[C@@H]1CCCC[C@H]1CN1CCN(c2nsc3ccccc23)CC1` [lurasidone] was tested, and the IC50 (ARPE-19 cells [1]; [8]) was at most 5 µM.

`CN(Cc1cnc2nc(N)nc(N)c2n1)c1ccc(C(=O)N[C@@H](CCC(=O)O)C(=O)O)cc1` [methotrexate] was tested, and the IC50 (ARPE-19 cells [1]; [8]) was over 10 µM.

With `OC1(c2ccc(Cl)c(C(F)(F)F)c2)CCN(CCCC(c2ccc(F)cc2)c2ccc(F)cc2)CC1` [penfluridol] the IC50 (ARPE-19 cells [1]; [8]) was at most 5 µM.

`OCCN1CCN(CCCN2c3ccccc3Sc3ccc(Cl)cc32)CC1` [perphenazine] gave an IC50 (ARPE-19 cells [1]; [8]) of over 10 µM.

For `O=c1[nH]c2ccccc2n1C1CCN(CCCC(c2ccc(F)cc2)c2ccc(F)cc2)CC1` [pimozide], the IC50 (ARPE-19 cells [1]; [8]) was at most 5 µM.

`CN1CCC(=C2c3ccccc3CCc3sccc32)CC1` [pizotifen] gave an IC50 (ARPE-19 cells [1]; [8]) of at most 5 µM.

Compound `CCN1CCC[C@H]1CNC(=O)c1c(O)c(Cl)cc(Cl)c1OC` [raclopride] has an IC50 (ARPE-19 cells [1]; [8]) of over 10 µM.

`CCN1CCC[C@H]1CNC(=O)c1c(OC)ccc(Br)c1OC` [remoxipride] gave an IC50 (ARPE-19 cells [1]; [8]) of over 10 µM.

With `O=C1NCCN1CCN1CCC(c2cn(-c3ccc(F)cc3)c3ccc(Cl)cc23)CC1` [sertindole] the IC50 (ARPE-19 cells [1]; [8]) was at most 5 µM.

With `c1ccc2c(c1)Oc1cccnc1N=C2N1CCNCC1` [solnitropine] the IC50 (ARPE-19 cells [1]; [9]) was at most 5 µM, the IC50 (ARPE-19 cells [1]; [8]) was at most 5 µM and the “expression of COL1A1” value [2] was “significantly reduced”. For the same compound, the “expression of FN1” value [2] was “significantly reduced”.

`c1ccc2c(c1)Oc1sccc1N=C2N1CCNCC1` [solupine] was tested, and the “fibronectin deposition, cocktail of profibrotic ligands” value (ARPE-19 cells [3]) was “blocks fibronectin deposition”, the “potency at blocking PDGF stimulated proliferation” value (ARPE-19 cells [4]) was “more potent than methotrexate” and the “functional stability of stock” value (ARPE-19 cells [5]) was “at least 90 days”. For the same compound, the ocular toxicity scoring (mouse eye; eye injection 1 μL PBS containing 10 μg/0.05 mL solupine) was “No observable toxicity”, the ocular toxicity scoring (mouse eye; eye injection 1 μL PBS containing 30 μg/0.05 mL solupine) was “No observable toxicity” and the IC50 (ARPE-19 cells [1]; [9]) was at most 5 µM. For the same compound, the IC50 (ARPE-19 cells [1]; [8]) was at most 5 µM, the “expression of COL1A1” value [2] was “significantly reduced” and the “expression of FN1” value [2] was “significantly reduced”. The “fibronectin deposition by conjunctival fibroblasts” value [6] was “does not block fibronectin deposition”.

With `CCN1CCCC1CNC(=O)c1cc(S(N)(=O)=O)ccc1OC` (stereo not shown) [sulpiride] the IC50 (ARPE-19 cells [1]; [8]) was over 10 µM.

In the case of `O=C(CCCN1CCC(n2c(=S)[nH]c3ccccc32)CC1)c1ccc(F)cc1` [timiperone], the IC50 (ARPE-19 cells [1]; [8]) is reported as at most 5 µM.

`CN1CCN(CCCN2c3ccccc3Sc3ccc(C(F)(F)F)cc32)CC1` [trifluoperizine] gave an IC50 (ARPE-19 cells [1]; [7]) of over 10 µM.
